Measured values as given in patent publication US20070027189A1, “Use of known active ingredients as radical scavengers” (Altana Pharma AG, priority 2003, published 2007).

Columns and labels:
[1] = OH-radical-dependent degradation of haeme group (Soret band at 408 nm), Cu/ascorbate Fenton reaction; type: biochemical, Bovine; conditions: for inhibition of heme degradation: aqueous assay; for inhibition of heme degradation compared to control: dissolved in DMF
Description: A suitable assay is the inhibition of the OH-radical-dependent degradation of the heme system of heme proteins. The […] of the Soret band of the heme group can be conveniently quantified in the 350-450 nm region. An alternative assay used was the depolymerisation of hyaluronic acid by OH-radicals The progressive depolymerisation of this mucopolysaccharide was followed viscosimetrically and should be inhibited accordingly in the presence of the prazoles. Bovine erythrocytes were haemolysed and diluted with water to give an electronic absorption at 408 nm of 1.0. The assay was performed analogous to that of the myeloperoxidase enzymatic activity test where hypochlorite is produced which is known to degrade the heme group of heme proteins. To 574 μl of aqueous haeme solution in a thermostatted cuvette 6 μl of DMF or water and 10 μl of […] aqueous copper sulphate were added for 5 minutes. The reaction was started after the addition of 10 μl 50 μM ascorbic acid and the absorption followed at 37° C. for two minutes in the control experiment. Depending on the solubility the respective inhibitor was added in a volume of 6 μl in DMF or water. The total volume was 600 μl.

[2] = depolymerisation of hyaluronic acid by OH-radicals, viscosimetric; type: biochemical
Description: A suitable assay is the inhibition of the OH-radical-dependent degradation of the heme system of heme proteins. The […] of the Soret band of the heme group can be conveniently quantified in the 350-450 nm region. An alternative assay used was the depolymerisation of hyaluronic acid by OH-radicals The progressive depolymerisation of this mucopolysaccharide was followed viscosimetrically and should be inhibited accordingly in the presence of the prazoles. Depolymerisation of hyaluronic acid was measured in terms of viscosity change with time. Potassium hyaluronate was purchased from Sigma-Aldrich Chemie, Steinheim, Germany. All operations were performed at room temperature (22° C.). Relative viscosity was monitored by recording the time (seconds) required for a given volume (0.8 ml) of the reaction mixture to drain by gravity from the barrel of a plastic 1 ml syringe through a needle of appropriate size. The meniscus was timed as it passed between two calibration marks on the syringe barrel. […] The reaction was started with 30 μl of 50 mM ascorbic acid in presence of 10 mM phosphate buffer pH 7.2 and incubated for 5 minutes. […] When the water-soluble sodium salt of pantoprazole was examined only 2.5 μl 10 mM copper sulphate and 5 μl 50 mM ascorbic acid were needed to yield an appropriate depolymerization effect.

[3] = superoxide radical scavenging system (superoxide dismutase assay using nitro tetrazolium chloride); type: biochemical
Procedure: In order to examine a possible reactivity of the substituted benzimidazoles with superoxide a standard superoxide dismutase assay using nitro tetrazolium chloride was employed. Scavengeing of hydroxyl radicals was measured by three different established methods.

[4] = thiobarbituric acid assay (2-desoxy-D-ribose decomposition, Fe(II) Fenton reaction); type: biochemical; conditions: concentration dependent
Description: In a third completely different method OH-radicals generated during a Fenton reaction decomposed 2-desoxy-D-ribose. This reaction was monitored by measuring the formation of malondialdehyde-like compounds known to yield coloured thiobarbituric acid adducts which were eventually recorded at 532 nm. […] This was attributed to the extraordinary stability of this compound surviving a hydroxyl radical burst A crucial question was the survival of these benzimidazoles during Fenton-type reactions. These stability measurements were conducted employing HPLC analysis allowing the detection of remaining intact primary compounds. The thiobarbituric acid assay was performed according to the method described earlier [10]300 μl 7.5 mM 2-desoxy-D-ribose were added to 1000 μl 10 mM potassium-phosphate buffer, pH 7.4 and incubated for 30 min. at 37° C. in the presence of 100 μl inhibitor compound and 100 μl 10 mM iron(II)ammonium sulphate. The total volume was 1.5 ml. The reaction was stopped by the addition of 1 ml 1% (w/v) thiobarbituric acid dissolved in 50 mM NaOH and 1 ml of 2.8% (w/v) trichloro acetic acid and maintained for 15 min at 95° C. The control reaction mixture contained the same volume of DMFas was present in the inhibitor compound. The dye was measured at 532 nm.

[5] = stability under conditions of the Fenton reaction, HPLC analysis; type: physicochemical; conditions: 90 min of incubation, n=3
Description: In a third completely different method OH-radicals generated during a Fenton reaction decomposed 2-desoxy-D-ribose. This reaction was monitored by measuring the formation of malondialdehyde-like compounds known to yield coloured thiobarbituric acid adducts which were eventually recorded at 532 nm. […] This was attributed to the extraordinary stability of this compound surviving a hydroxyl radical burst A crucial question was the survival of these benzimidazoles during Fenton-type reactions. These stability measurements were conducted employing HPLC analysis allowing the detection of remaining intact primary compounds. A 200 μl aliquot of the incubation mixture was analysed by HPLC using the analytical column Nucleosil C 8, 5 μm (125×4.6 mm, Fa. Grom, Herrenberg, Germany) and the precolumn was LiCHROPREP RP-2 (12×4 mm, Fa. Merck, Darmstadt, Germany) in a reverse phase. A gradient of acetonitrile (10-45% (v/v)) and 10 mM phosphate buffer, pH 7.4, at a flow rate of 1 ml min-1 was used as effluent on the analytical column.

[6] = scavenging of hydroxyl radicals generated during a Fenton reaction (three assays); type: biochemical
Procedure: Bovine erythrocytes were haemolysed and diluted with water to give an electronic absorption at 408 nm of 1.0. The assay was performed analogous to that of the myeloperoxidase enzymatic activity test where hypochlorite is produced which is known to degrade the heme group of heme proteins. To 574 μl of aqueous haeme solution in a thermostatted cuvette 6 μl of DMF or water and 10 μl of […] aqueous copper sulphate were added for 5 minutes. The reaction was started after the addition of 10 μl 50 μM ascorbic acid and the absorption followed at 37° C. for two minutes in the control experiment. Depending on the solubility the respective inhibitor was added in a volume of 6 μl in DMF or water. The total volume was 600 μl. Depolymerisation of hyaluronic acid was measured in terms of viscosity change with time. Potassium hyaluronate was purchased from Sigma-Aldrich Chemie, Steinheim, Germany. All operations were performed at room temperature (22° C.). Relative viscosity was monitored by recording the time (seconds) required for a given volume (0.8 ml) of the reaction mixture to drain by gravity from the barrel of a plastic 1 ml syringe through a needle of appropriate size. The meniscus was timed as it passed between two calibration marks on the syringe barrel. […] The dye was measured at 532 nm.

[7] = after oral administration; read-out: maximal concentration (Cmax) in plasma; cited from earlier work

| SMILES | inhibition of heme degradation ([1]; 25 μM) | inhibition of heme degradation ([1]; 50 μM) | inhibition of heme degradation ([1]; 100 μM) | inhibition of hyaluronic acid depolymerisation ([2]; 12 μM, fully aqueous assay) | biopolymer protected ([2]; 20 μM, fully aqueous assay) | reactivity in the superoxide radical scavenging system [3] | inhibition of heme degradation compared to control ([1]; 50 μM) | inhibition of heme degradation compared to control ([1]; 100 μM) | mucopolysaccharide degradation ([2]; 80 μM dissolved in DMF, within 20 min) | inhibition of hyaluronic acid depolymerisation ([2]; 160 μM dissolved in DMF) | inhibitory effect on OH-radical decomposition of desoxyribose [4] | decrease of intact compound after OH-radical exposure [5] | scavenging of hydroxyl radicals [6] | Cmax [7] |
| --- | --- | --- | --- | --- | --- | --- | --- | --- | --- | --- | --- | --- | --- | --- |
| COc1ccnc(C[S+]([O-])c2nc3ccc(OC(F)F)cc3[nH]2)c1OC (centres unmarked) [pantoprazole sodium] | distinct inhibition | 34% | 74% | 46% | 90% | – | – | – | – | – | – | – | – | – |
| COc1ccnc(C[S+]([O-])c2nc3ccc(OC(F)F)cc3[nH]2)c1OC (centres unmarked) [pantoprazole, 5-difluoromethoxy-2-[(3,4-dimethoxy-2-pyridinyl)methylsulphinyl]-1H-benzimidazole] | – | – | – | – | – | did not display detectable reactivity | 36% | 75% | 48% | nearly complete inhibition | inhibitory effect was clearly seen | 15% | pronounced inhibitory reactivity | 5 to 10 µM |
